The values below come from patent US20260224588A1, “BENZODIAZEPINONE-DERIVED INHIBITORS OF EGFR AND HER2” (The Research Foundation for the State University of New York, priority 2023, published 2026).

The target of assay [1] is T1, EGFR L858R/T790M/C797S kinase domain (Homo sapiens, UniProt P00533, C797S/L858R/T790M).
T1 construct: The EGFR kinase domain (residues 696-1022) was cloned into pTriEx; 6xHis (N, cleaved yes); GST (N, cleaved yes); made in house; host or cells: SF9 insect cells (baculovirus)
The assay can be described thus: HTRF-based activity assay. Format: biochemical. As to the method:
(§1) Protein expression and purification. The EGFR kinase domain (residues 696-1022) was cloned into pTriEx with an N-terminal 6×His-glutathione S-transferase (GST) fusion tag followed by a TEV protease cleavage site. EGFR WT, L858R, L858R/T790M, L858R/T790M/C797S was expressed after baculoviral infection in SF9 cells and EGFR(T790M/V948R) was expressed in SF21 cells. Briefly, cells were pelleted and resuspended in lysis buffer composed of 50 mM Tris pH 8.0, 500 mM NaCl, 1 mM tris(2-carboxyethyl)phosphine (TCEP), and 5% glycerol. Cells were lysed via sonication prior to ultracentrifugation at >200,000 g for 1 h. Imidazole pH 8.0 was added to the supernatant for a final concentration of 40 mM and flowed through a column containing Ni-NTA agarose beads. The resin was washed with lysis buffer supplemented with 40 mM imidazole and eluted with lysis buffer containing 200 mM imidazole. Eluted EGFR kinase domain was dialyzed overnight in the presence of 5% (w/w) TEV protease against dialysis buffer containing 50 mM Tris pH 8.0, 500 mM NaCl, 1 mM TCEP, and 5% glycerol. The cleaved protein was passed through Ni-NTA resin to remove the 6×His-GST fusion protein and TEV prior to size exclusion chromatography on a prep-grade Superdex S200 column in 50 mM Tris pH 8.0, 500 mM NaCl, 1 mM TCEP, and 5% glycerol.
(§2) HTRF Assays. Biochemical assays for EGFR domains were carried out using a homogeneous time-resolved fluorescence (HTRF) KinEASE-TK (Cisbio) assay, as described previously. Assays were optimized for ATP concentration of 100 μM with enzyme concentrations WT EGFR 10 nM, L858R 0.1 nM, L858R/T790M at 0.02 nM and L858R/T790M/C797S at 0.02 nM. Inhibitor compounds in DMSO were dispensed directly in 384-well plates with the D300 digital dispenser (Hewlett Packard) followed immediately by the addition of aqueous buffered solutions using the Multidrop Combi Reagent Dispenser (Thermo Fischer). […] The curves were fitted using a non-linear regression model with a sigmoidal dose response.
On the technique in general: TR-FRET usually uses a lanthanide donor and a delayed reading to cut background.

Assay [2] has as its target T2, EGFR L858R/T790M kinase domain (Homo sapiens, UniProt P00533, L858R/T790M).
T2 construct: The EGFR kinase domain (residues 696-1022) was cloned into pTriEx; 6xHis (N, cleaved yes); GST (N, cleaved yes); made in house; host or cells: SF9 insect cells (baculovirus)
In words: HTRF-based activity assay. The class given is biochemical. The method, then: as §1, §2

The next assay deals with T3, EGFR L858R kinase domain (Homo sapiens, UniProt P00533, L858R).
T3 construct: The EGFR kinase domain (residues 696-1022) was cloned into pTriEx; 6xHis (N, cleaved yes); GST (N, cleaved yes); made in house; host or cells: SF9 insect cells (baculovirus)
The assay can be described thus: HTRF-based activity assay. The class given is biochemical. The method, then: as §1, §2

The test system of assay [3] is EGFR (L858R/T790M) in H1975 lung cancer cells. In words: Western blotting of EGFR, ERK1/2 and AKT phosphorylation. Format: cell-based, human. The following applies: 6 hours treatment. As to the method:
FIG. 2. […] All experiments performed after 6 hours treatments of inhibitors or DMSO controls and Western blots are representative of at least three independent experiments.
Western blotting. Cells were collected and lysed with lysis buffer (5M NaCl, 1M TRIS pH 8.0, 10% SDS, 10% Triton X-100 and a tablet of protease inhibitors) and processed for Western blotting analysis. Primary antibodies used; phospho-EGFR (Tyr1068; #2234, 1:1,000), EGFR (#4267; 1:1,000), phospho-AKT (Ser473; #4060, 1:1,000), AKT (#9272, 1:1,000), phospho-ERK1/2 (Thr202/Tyr204; #4370, 1:1,000), and ERK1/2 (#4695, 1:1,000) antibodies; were purchased from Cell Signaling Technology. Secondary Goat anti-rabbit IgG starbright blue 700 and Anti-tubulin hFAB Rhodamine Tubulin were purchased from Bio-rad.
Background: A western blot detects proteins with antibodies after separation by electrophoresis.

Assay [4] concerns L858R EGFR mutant Ba/F3 cells. Conditions: cited from earlier work.
Assay [5] deals with wildtype EGFR Ba/F3 cells. The following applies: from literature (footnotes a, c), read-out: Anti-proliferative EC50 ± SE, wt; cited from earlier work.
Assay [6] concerns L858R/T790M EGFR mutant Ba/F3 cells. The following applies: from literature (footnotes a, c), read-out: Anti-proliferative EC50 ± SE, LR/TM; cited from earlier work.
Assay [7] deals with wildtype HER2 Ba/F3 cells. Conditions: from Heppner et al. 2022, read-out: Anti-proliferative EC50 ± SE, HER2; cited from earlier work.
The next assay has as its target T4, WT EGFR kinase domain (Homo sapiens, UniProt P00533).
T4 construct: The EGFR kinase domain (residues 696-1022) was cloned into pTriEx; 6xHis (N, cleaved yes); GST (N, cleaved yes); made in house; host or cells: SF9 insect cells (baculovirus)
In words: HTRF-based activity assay. The class given is biochemical. The method, then:
as §1, §2

Setting [8] is: 100 μM ATP, enzyme 0.02 nM, read-out: Biochemical EGFR IC50, LRTMCS.
The mark [9] stands for this setting: 100 μM ATP, enzyme 0.02 nM, read-out: Biochemical EGFR IC50, LRTM.
[10] abbreviates: 100 μM ATP, enzyme 0.1 nM, read-out: Biochemical EGFR IC50, LR.
Setting [11] is: from literature (footnotes a, c), read-out: Anti-proliferative EC50 ± SE, LR.

Entries after “also recorded” stand apart in the source; their conditions may differ. Like-named read-outs stand apart in the source and are kept apart here.

T2 sequence (P00533 696-1022 T790M/L858R): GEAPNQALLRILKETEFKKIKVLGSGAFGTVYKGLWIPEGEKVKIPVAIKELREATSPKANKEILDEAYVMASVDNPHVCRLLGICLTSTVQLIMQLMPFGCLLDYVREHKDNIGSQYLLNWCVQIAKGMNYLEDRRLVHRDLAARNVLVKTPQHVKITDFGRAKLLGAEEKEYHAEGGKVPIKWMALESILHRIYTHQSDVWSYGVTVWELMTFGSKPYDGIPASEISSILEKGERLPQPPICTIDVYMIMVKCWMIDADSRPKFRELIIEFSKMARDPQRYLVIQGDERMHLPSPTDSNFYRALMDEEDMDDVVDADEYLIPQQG
T3 sequence (P00533 696-1022 L858R): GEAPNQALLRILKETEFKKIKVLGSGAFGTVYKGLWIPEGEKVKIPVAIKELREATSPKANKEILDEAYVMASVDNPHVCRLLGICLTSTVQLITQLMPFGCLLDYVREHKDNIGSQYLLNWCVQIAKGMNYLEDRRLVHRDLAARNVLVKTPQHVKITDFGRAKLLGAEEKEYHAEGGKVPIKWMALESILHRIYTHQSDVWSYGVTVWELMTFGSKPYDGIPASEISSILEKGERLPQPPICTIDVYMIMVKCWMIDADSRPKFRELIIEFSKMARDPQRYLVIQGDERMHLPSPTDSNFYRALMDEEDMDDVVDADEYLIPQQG
T1 sequence (P00533 696-1022 T790M/C797S/L858R): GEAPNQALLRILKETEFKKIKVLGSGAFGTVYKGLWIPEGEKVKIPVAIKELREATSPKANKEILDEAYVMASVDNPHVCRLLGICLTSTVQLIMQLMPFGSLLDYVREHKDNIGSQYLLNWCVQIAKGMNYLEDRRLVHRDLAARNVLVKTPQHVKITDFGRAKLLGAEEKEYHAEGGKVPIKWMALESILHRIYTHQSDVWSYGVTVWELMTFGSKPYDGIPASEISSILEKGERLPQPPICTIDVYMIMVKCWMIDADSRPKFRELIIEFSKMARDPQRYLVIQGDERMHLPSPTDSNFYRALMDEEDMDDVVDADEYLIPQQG
T4 sequence (P00533 696-1022): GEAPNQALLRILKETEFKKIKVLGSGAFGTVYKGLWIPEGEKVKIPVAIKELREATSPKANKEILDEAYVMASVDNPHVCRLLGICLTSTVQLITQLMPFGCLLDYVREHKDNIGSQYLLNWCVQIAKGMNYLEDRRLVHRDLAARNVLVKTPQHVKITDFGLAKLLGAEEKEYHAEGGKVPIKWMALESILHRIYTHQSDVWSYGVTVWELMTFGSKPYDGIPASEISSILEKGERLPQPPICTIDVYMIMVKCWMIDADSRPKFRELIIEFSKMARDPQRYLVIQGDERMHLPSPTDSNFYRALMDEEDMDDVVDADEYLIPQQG

Broadly, the IC50 is the midpoint of a concentration-inhibition curve. Turning to `CSc1nc(-c2cccc(NC(=O)c3cccc4c3NC(=O)c3ccccc3N4)c2)c(-c2ccnc(NC(C)=O)c2)[nH]1` [Compound 2, N-(3-(5-(2-Acetamidopyridin-4-yl)-2-(methylthio)-1H-imidazol-4-yl)phenyl)-11-oxo-10,11-dihydro-5H-dibenzo[b,e][1,4]diazepine-9-carboxamide], the figures for the IC50 (in assay [1] (setting [8]); in assay [2] (setting [9]); at EGFR L858R kinase domain (setting [10])) were 0.064 ± 0.004 nM, 0.059 ± 0.005 nM and 1.5 ± 0.1 nM, respectively. Moreover, the “EGFR, ERK1/2 and AKT phosphorylation (Western blot)” value in [3] was “less effective; also recorded: suppresses EGFR phosphorylation”.

Consider `O=C1c2ccccc2Nc2ccc(F)cc2N1Cc1ccccc1` [DDC4002], for which the EC50 was above 10 µM in assay [4] (experiments that include cetuximab, from De Clercq and Heppner et al. 2019, read-out: Anti-proliferative EC50 ± SE, LR); above 10 µM in [4] (setting [11]).

As for `CCc1nc(-c2cccc(NC(=O)c3cccc4c3NC(=O)c3ccccc3N4)c2)c(-c2ccnc(NC(C)=O)c2)[nH]1` [Compound 3, N-(3-(5-(2-Acetamidopyridin-4-yl)-2-ethyl-1H-imidazol-4-yl)phenyl)-11-oxo-10,11-dihydro-5H-dibenzo[b,e][1,4]diazepine-9-carboxamide], the figures for the IC50 (in assay [1] (setting [8]); in assay [2] (setting [9]); at EGFR L858R kinase domain (setting [10])) were 0.063 ± 0.005 nM, 0.051 ± 0.005 nM and 1.2 ± 0.09 nM, respectively.

With `C=CC(=O)Nc1cc(Nc2nccc(-c3cn(C)c4ccccc34)n2)c(OC)cc1N(C)CCN(C)C` [Osimertinib], the EC50 in assay [5] was 110 ± 40 nM; in [6], 8 nM; in [4] (setting [11]) it was 0.0033 ± 0.0006 µM; in assay [7], 34 ± 8 nM.

As to `CCc1nc(-c2cccc(NC(=O)c3cccc4c3NC(=O)c3ccccc3N4)c2)c(-c2ccnc(Nc3ccccc3)c2)[nH]1` [Compound 5, N-(3-(2-ethyl-5-(2-(phenylamino)pyridin-4-yl)-1H-imidazol-4-yl)phenyl)-11-oxo-10,11-dihydro-5H-dibenzo[b,e][1,4]diazepine-9-carboxamide], the IC50 in assay [1] (setting [8]) is 1 ± 0.1 nM; in [2] (setting [9]) it was 0.87 ± 0.09 nM; at EGFR L858R kinase domain (setting [10]) it was 1.1 ± 0.2 nM; on WT EGFR kinase domain (100 μM ATP, enzyme 10 nM, read-out: Biochemical EGFR IC50, wt) it was below 10 nM.

In the case of `CSc1nc(-c2cccc(CN3C(=O)c4ccccc4Nc4ccc(F)cc43)c2)c(-c2ccnc(NC(C)=O)c2)[nH]1` [Compound 1, N-(4-(4-(3-((8-Fluoro-11-oxo-5,11-dihydro-10H-dibenzo[b,e][1,4]diazepin-10-yl)methyl)phenyl)-2-(methylthio)-1H-imidazol-5-yl)pyridin-2-yl) acetamide], the IC50 was above 1000 nM in assay [1] (read-out: IC50 values, LRTMCS); above 1000 nM in [2] (read-out: IC50 values, LRTM); 1300 ± 100 nM on EGFR L858R kinase domain (setting [10]); above 1000 nM at EGFR L858R kinase domain (read-out: IC50 values, LR); above 1000 nM at WT EGFR kinase domain (read-out: IC50 values, WT EGFR).
